Source: a melting point compilation (Tetko et al.; mined from patent text by program, amines drawn as free bases though some values may be those of a salt)

| Structure (SMILES) | melting point [°C] |
| --- | --- |
| Cc1cc(Oc2ccc(Cl)nn2)c(C)cc1N | 138 to 140 |
| COC(=O)c1c([N+](=O)[O-])c(OC)c2c(=O)[nH]c(C)nc2c1OC | 225 |
| CN(C(=O)c1ccc(Cn2ncc3ccccc32)cc1)C1CCNCC1 | 146 to 148 |
| O=CNC1=NN(c2cccc(Cl)c2)CC1 | 143 to 145 |
| NC(=O)N(O)Cc1ccc(OCCc2csc(-c3ccc(C(F)(F)F)cc3)n2)cc1 | 146 to 147 |
| Cc1oc(-c2ccccc2)nc1COc1ccc(N)cn1 | 106 to 107 |
| CC(C)Cn1c(=O)n(C)c(=O)c2c(SCCC(C)O)c(Cc3cccc4ccccc34)sc21 (stereo not given) | 162 to 163 |
| CC(Cc1c[nH]c2ccccc12)C1CCNCC1 (stereo not given) | 150 |
| CN(CCCO)c1ccnc(CSc2nc3ccccc3[nH]2)c1Cl | 127 to 130 |
| COC(=O)NC=Cc1ccc(OCC(O)CNC(C)CC#N)cc1 (stereo not given) | 122 to 123 |
| O=C(NCCO)/C(=C/c1ccc(C(F)(F)F)cc1F)NC(=O)c1ccc(OCCC(F)(F)F)cc1 | 203 to 205 |
| COC1CC(c2ccc(-c3ccc(C#N)cc3)cc2)C(OC)O1 (stereo not given) | 149 to 150 |
| COc1ccc(-c2nn(CCCc3ccccc3)c(=O)cc2-c2ccncc2)cc1 | 67.7 to 68.3 |
| COC(=O)COCc1cc(Br)ccc1C(=O)OC | 60 to 62 |
| NC(=O)c1cccc2nccc(O)c12 | 205 to 207 |
| O=c1cc(NCCN2CCN(c3ccc(F)cc3)CC2)cn[nH]1 | 96 to 98 |
| Cn1ncc2c1CS(=O)c1cn[nH]c1-2 (stereo not given) | > 270 |
| Cc1cccc(COc2cccc(OCc3ccc4ccc(Cl)cc4n3)c2)c1C(=O)O | 188 to 193 |
| OCc1ccccc1-c1noc2ccccc12 | 55 |
| COC1(c2cc(F)cc(Sc3ccc(C(C)=O)cc3)c2)CCOCC1 | 141 |
| O=C(NCCO)c1cccc(-c2ccc3c(c2)N(Cc2cc(Cl)cc(Cl)c2)CC3)c1 | 121 to 128 |
| COC(=O)CCCc1ccc(C(=O)CCCc2ccccc2)cc1 | 61 to 62 |
| CCCc1c(OCC(O)COc2cccc(NC(=O)C(=O)OCC)c2)ccc(C(C)=O)c1O (stereo not given) | 98 to 101 |
| COC1CCC2(C)C(=CCC3C2CCC2(C)C(C(C)=O)CCC32)C1 (stereo not given) | 123 to 124 |
| O=C1c2ccc(O)cc2C(=O)C1c1ccc(O)cc1 (stereo not given) | 227 to 228 |

| Structure (SMILES) | melting point [°C] |
| --- | --- |
| COc1c(Cl)cc(N)cc1Cl | 80 to 81 |
| CC(C)(Nc1ccc(Cc2ccccc2)cc1)C(=O)O | 130 |
| COC(=O)C(C)Oc1cccc(C=Cc2ccc3ccc(Br)cc3n2)c1 (stereo not given) | 101 to 102 |
| CCCc1c(OCC#CCSCCO)ccc(C(C)=O)c1O | 52 to 53 |
| Cn1ncc2c(=O)n3c(nc21)SCC3(C)C | 188 |
| CN(Cc1cccc(-c2ccc(CC3SC(=O)NC3=O)cc2)c1)C(=O)CCCCC(=O)c1ccccc1 (stereo not given) | 48 |
| CC(C)CN(OCc1ccccc1)C(=O)Nc1ccccc1 | 85 to 87 |
| CCOC(=O)c1cc(C(=O)C(C)C)c(=O)[nH]c1C(=O)OCC | 116 to 118 |
| CCCc1nn(-c2ccc(C(F)(F)F)cn2)cc1COc1ccc(CCC(=O)O)c(C)c1 | 129 to 130 |
| C=CCn1c(=O)c2[nH]c(/C=C/c3ccc(OC)c(OC)c3)nc2n(CC=C)c1=O | 252 |
| COc1ccc(CNC(=O)c2ccc3n2Cc2ccccc2N(C(=O)c2ccc(-c4ccccc4C)c(C)c2)C3)cc1 | 127 to 128 |
| CC(C)CCS(=O)c1cccc(-c2nc(=O)c3ccccc3s2)n1 (stereo not given) | 59.5 to 61 |
| OCc1cc(Cl)c(Br)cn1 | 109 to 110 |
| COc1ccc(Cc2cc(C3CCN(C(=O)Nc4ccccc4)CC3)nc(N)n2)cc1 | 178 to 180 |
| O=S(CCCCCOc1ccc(C2=C(c3ccccc3)CCCc3cc(O)ccc32)cc1)CCCC(F)(F)F (stereo not given) | 145 |
| CCCNC(=S)NC1=Nc2ccc(OC(F)(F)F)cc2SC1 | 180 to 182 |
| CC(=O)OC(CCCCl)C(=O)OCc1ccccc1 (stereo not given) | 40 to 41 |
| O=C(O)CCC(=NO)c1ccc(-c2ccc(Cl)c(Cl)c2)cc1 | 166 |
| COc1ccc(-n2c(C)ccc2-c2ccc(S(N)(=O)=O)cc2)cc1 | 196 to 197 |
| Cc1ccc(S(=O)(=O)OCCn2c([N+](=O)[O-])cnc2C=CN(C)C)cc1 | 116 to 118 |
| CCOc1cc2ncc(C#N)c(Nc3ccc(OCc4ccccc4)c(Cl)c3)c2cc1NC(=O)CC(CN(C)C)N(C)C (stereo not given) | 102 to 104 |
| C#CCOc1cccc(C)c1S(N)(=O)=O | 129 |
| COC(=O)C(Cc1cc(OC)cc(OC)c1)c1ccc(Oc2ccc(CC3SC(=O)NC3=O)cc2)cc1 (stereo not given) | 125 to 128 |
| O=C(NCCc1ccccc1)c1ccc(S(=O)(=O)Nc2ccccc2C(=O)O)cc1 | 242 to 244 |
| CCc1nc2c(cnn2CC)c(NC2CCOCC2)c1CNC(=O)c1cccc(C(=O)NCc2ccc(Cl)c(-c3cccc(C=O)c3)c2)c1 | 131 to 134 |

| Structure (SMILES) | melting point [°C] |
| --- | --- |
| CCOC(=O)c1csnc1-c1ccc(Cl)cc1 | 70.5 to 71.5 |
| O=c1[nH]c2ccc(S(=O)CCN3CCC(O)(Cc4ccc(F)cc4)CC3)cc2o1 (stereo not given) | 153 to 155 |
| O=C(Nc1ccc(CN2CCCCC2)cc1)C1=Cc2cc(C3CCCCC3)ccc2CC1 | 180 to 181 |
| COc1cc2ncnc(N3CCCCc4ccc(Br)cc43)c2cc1OC | 209 to 217 |
| CSc1cccc(Oc2ncc(F)cc2C(=O)N[C@@H]2CCCC[C@@H]2O)c1 (relative stereo) | 99 to 101 |
| CC1=C(C(=O)OCCN(C)Cc2ccccc2)C(c2cccc3c(=O)c(C)c(-c4ccccc4)oc23)C(C(=O)OC(C)C)=C(C)N1 (stereo not given) | 170 to 172 |
| CSc1nc(=O)cc(N)n1-c1ccc(Br)cc1 | 138 to 140 |
| CCOC(=O)c1nc2cc(NC(=O)c3c(C(=O)N4CCC4)cnn3C)ccn2n1 | 252 to 255 |
| CC(C)C(NC(=O)c1ccccc1)C(=O)O (racemic) | 125 to 128 |
| CC(C)c1nc(CCOC2=CCCCCCCCCCC2)n(C)c1Sc1cc(Cl)cc(Cl)c1 | 96 to 102 |
| CCN(CC)c1nc2ncnn2c2c1cnc1c2cnn1CC | 215 to 217 |
| COc1ccc(-c2c(C(=O)O)c3ccccc3n2C)cc1 | 229 to 230 |
| Cn1c2cc(OCCO)ccc2c2c3c(c(-c4ccccc4Cl)cc21)C(=O)NC3=O | 309 to 312 |
| COc1cc2c(cc1Br)C(=CNc1ccc(N3CCN(C)CC3)cc1)C(=O)NC2=O | 274 to 276 |
| O=C(O)c1cccc2c(=O)cc(-c3cccc(OCc4ccccc4)c3)oc12 | 121 to 122 |
| CCOC(=O)c1sc2ccc(Cl)cc2c1CBr | 148 to 150 |
| Oc1cc(Cl)ccc1Oc1cccc(Br)c1 | 63 to 65 |
| OC1CSC(Oc2cncc(-c3ccnc(F)c3)c2)C(O)C1O (stereo not given) | 208 |
| Cc1ccc(S(=O)(=O)Cc2ccc([N+](=O)[O-])cc2)cc1 | 188 to 190 |
| CCOC(=O)C1=CC2(CCC1S(=O)(=O)Nc1ccc(F)cc1Cl)OCCS2 (stereo not given) | 133 to 134 |
| CN(C)c1nonc1-c1nc2ccccc2n1CC(=O)c1ccc(Cl)cc1 | 120 to 123 |
| O=C1CN(NC(=O)NC(C(=O)O)c2ccccc2)C(=O)N1 (stereo not given) | 139 to 143 |
| O=[N+]([O-])c1cc(Br)c(NS(=O)(=O)c2ccccc2)cc1Br | 148 |
| CC(C)(CN)c1ccc(C(=O)Nc2cn3cc(-n4ccnc4)ccc3n2)cc1 | 258 to 260 |
| CCOP(=O)(OCC)c1ccc(/C=C(\C)c2ccc3c(c2)C(C)(C)CCC3(C)C)cc1 | 72.5 to 73.5 |

| Structure (SMILES) | melting point [°C] |
| --- | --- |
| FC(F)C(F)(F)Sc1nc(-c2ccc(Cl)c(Cl)c2)c(-c2cccs2)[nH]1 | 178 to 180 |
| N#Cc1cc(Cn2cncn2)ccc1-c1ccc(O)c(Cl)c1 | 195 to 197 |
| Cc1cc([C@@H]2C[C@H]2c2nc3ccccc3n2C)cc(-n2nc(C)nc2C)n1 (relative stereo) | 157 to 159 |
| CC(CO)(CO)NS(=O)(=O)c1cccc([N+](=O)[O-])c1 | 116 |
| O=C(Nc1cc(Cl)c(F)cc1-c1ccccc1)c1cccnc1Cl | 131 to 136 |
| O=C(O)c1cccc(CC2COc3ccc(OCc4ccccc4)cc3C2)c1 (single isomer, unassigned; (+)) | 128 to 130 |
| O=C(Nc1c[nH]nc1C(=O)NCCc1cccnc1)c1ccccn1 | 267 to 268 |
| CCCCc1nc(Cl)c(CC(=O)O)n1Cc1ccc([N+](=O)[O-])cc1 | 207 to 210 |
| CCCC(OC)c1ccc(Cl)c2nc3n(c12)CCCN3c1c(C)cc(Cl)cc1Cl (stereo not given) | 151 to 152 |
| Cc1oc(-c2ccccc2)nc1COc1ccc(CON2C(=O)c3ccccc3C2=O)cc1 | 155 to 156 |
| CCOC(=O)C1=CC2(CCC1S(=O)(=O)Nc1ccc(F)cc1Cl)OCCCO2 (stereo not given) | 120 to 121 |
| CC(=O)OC1CSC(Oc2cccc(C#N)c2)C(OC(C)=O)C1OC(C)=O (stereo not given) | 148 to 151 |
| COc1cc(C)c(C(=O)c2ccc(OCc3nc(-c4ccccc4)oc3C)cc2)c(O)c1 | 171 to 172 |
| COC(=O)CC(C(=O)OC)C(=O)c1ccccc1OC (stereo not given) | 75 to 76 |
| Clc1ccc2oc(SCCN3CCC(OC(c4ccccc4)c4ccccc4)CC3)nc2c1 | 98 to 101 |
| c1ccc2c(c1)CCn1ccnc1C2=C1CCNCC1 | 287 to 289 |
| Cc1ccc(S(=O)(=O)OCC2Cc3cccc(-c4ccccc4F)c3O2)cc1 (stereo not given) | 99 to 101 |
| Cc1ncoc1C(O)c1ccccc1 (stereo not given) | 79 to 81 |
| CC(C)(CO)Cc1ccc2cc(CC(C)(C)CO)ccc2c1 | 162 to 165 |
| CNCC(C(=O)O)c1ccc(O)cc1 (stereo not given) | 218 to 221 |
| CCOC(=O)N1CCC(=C2c3ccccc3CCn3ncnc32)CC1 | 106 |
| ClCCOc1ccccc1OCCCl | 55 to 56.5 |
| CC(C)(C)NC(=O)c1cc(F)ccc1N | 77 to 78 |
| O=C(c1cc(Cl)cc(Cl)c1)c1cc(Cl)cc(Cl)c1 | 157 |
| CC(=O)N[C@H](Cc1ccc(C(=O)c2ccccc2)cc1)C(=O)O | 186 to 187 |
